Reference: patent publication US20230382924A1, “MODULATORS OF CYSTIC FIBROSIS TRANSMEMBRANE CONDUCTANCE REGULATOR” (VERTEX PHARMACEUTICALS INCORPORATED, priority 2020, published 2023)
Like-named read-outs stand apart in the source and are kept apart here.

Biological target: CFTR (Homo sapiens, UniProt P13569)
Assay: Membrane Potential Dye, Enteroid Assay A
Type: cell-based
Conditions: for EC50: read-out: Ent. A EC50
Method in brief: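 Enteroid cells were loaded with methyl oxonol membrane potential dye (plus CaCCinh-A01 and Chicago Sky Blue) for 25 min at room temperature. Chloride transport was started by switching to chloride-free gluconate stimulation solution, with fluorescence read for 15 min. Activity was expressed as % of a triple-combination CFTR modulator control (3 μM, 3 μM, 300 nM acute).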

Chain of CFTR (P13569 with tags, fused parts or gaps DEL508-508): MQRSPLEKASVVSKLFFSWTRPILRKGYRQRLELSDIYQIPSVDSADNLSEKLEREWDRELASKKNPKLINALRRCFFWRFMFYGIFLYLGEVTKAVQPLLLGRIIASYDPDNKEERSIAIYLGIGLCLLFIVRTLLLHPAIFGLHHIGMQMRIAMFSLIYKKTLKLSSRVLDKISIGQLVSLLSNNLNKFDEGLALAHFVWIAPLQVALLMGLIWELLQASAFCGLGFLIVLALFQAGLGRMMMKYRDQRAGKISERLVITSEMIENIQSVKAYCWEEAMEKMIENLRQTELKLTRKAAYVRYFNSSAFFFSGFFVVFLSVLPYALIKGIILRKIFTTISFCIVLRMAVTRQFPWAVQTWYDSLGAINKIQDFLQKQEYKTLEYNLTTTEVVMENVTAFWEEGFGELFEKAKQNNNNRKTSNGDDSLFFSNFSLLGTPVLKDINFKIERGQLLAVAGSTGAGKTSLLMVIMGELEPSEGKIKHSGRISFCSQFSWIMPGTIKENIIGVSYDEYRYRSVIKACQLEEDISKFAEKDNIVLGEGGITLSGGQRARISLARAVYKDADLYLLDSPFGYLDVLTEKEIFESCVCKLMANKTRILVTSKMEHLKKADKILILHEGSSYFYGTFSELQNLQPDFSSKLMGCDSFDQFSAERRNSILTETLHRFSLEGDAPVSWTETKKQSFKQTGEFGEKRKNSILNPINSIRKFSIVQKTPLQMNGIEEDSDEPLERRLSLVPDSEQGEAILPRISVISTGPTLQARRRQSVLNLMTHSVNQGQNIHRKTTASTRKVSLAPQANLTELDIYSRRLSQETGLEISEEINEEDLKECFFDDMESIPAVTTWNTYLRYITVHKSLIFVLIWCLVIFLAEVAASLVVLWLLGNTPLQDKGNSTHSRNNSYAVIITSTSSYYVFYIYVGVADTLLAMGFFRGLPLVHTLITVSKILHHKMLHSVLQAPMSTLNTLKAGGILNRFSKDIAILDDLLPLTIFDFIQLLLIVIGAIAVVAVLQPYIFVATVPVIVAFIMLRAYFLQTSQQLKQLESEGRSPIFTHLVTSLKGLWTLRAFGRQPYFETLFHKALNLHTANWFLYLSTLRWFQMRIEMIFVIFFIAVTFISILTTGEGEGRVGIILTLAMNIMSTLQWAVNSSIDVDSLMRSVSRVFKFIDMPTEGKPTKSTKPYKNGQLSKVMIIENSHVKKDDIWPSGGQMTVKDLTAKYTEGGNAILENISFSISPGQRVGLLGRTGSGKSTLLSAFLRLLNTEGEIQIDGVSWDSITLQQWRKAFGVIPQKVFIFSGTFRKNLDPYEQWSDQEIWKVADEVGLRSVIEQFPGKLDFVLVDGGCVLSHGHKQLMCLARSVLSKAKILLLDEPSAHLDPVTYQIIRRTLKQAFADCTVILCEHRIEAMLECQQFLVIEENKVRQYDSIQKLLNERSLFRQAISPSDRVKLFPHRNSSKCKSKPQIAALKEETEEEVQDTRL

Ent. A Max Activity (Table 9) | EC50 (Table 9) | Ent. A Max Activity (Table 8) | EC50 (Table 8) | Structure (SMILES) | further results
– | – | +++ (+++ is >60%) | < 1 µM | Cc1cccc(C)c1-c1cc2nc(n1)NS(=O)(=O)c1cccc(c1)C(=O)NC[C@@H](c1ccc(C(C)(F)F)cc1)O2 (stereo in doubt) [Compound 399] | –
– | – | – | < 1 µM | Cc1cccc(C)c1-c1cc2nc(n1)NS(=O)(=O)c1cccc(c1)C(=O)NCC(c1ccc(C(F)(F)F)cc1)O2 (centres unmarked) [Compound 403] | –
– | – | + (+ is <30%) | – | Cc1ccc(C2CNC(=O)c3cccc(c3)S(=O)(=O)Nc3nc(cc(-c4c(C)cccc4C)n3)O2)cc1 (centres unmarked) [Compound 406] | –

The remaining lines, values behind:

Structure (SMILES) | Ent. A Max Activity (Table 9) | EC50 (Table 9) | Ent. A Max Activity (Table 8) | EC50 (Table 8) | further results
Cc1cccc(C)c1-c1cc2nc(n1)NS(=O)(=O)c1cccc(c1)C(=O)NCC(c1ccc(C(F)(F)C(F)(F)F)cc1)O2 (centres unmarked) [Compound 22, 6-(2,6-Dimethylphenyl)-2,2-dioxo-10-[4-(1,1,2,2,2-pentafluoroethyl)phenyl]-9-oxa-2λ^6-thia-3,5,12,19-tetrazatricyclo[12.3.1.14,8]nonadeca-1(18),4(19),5,7,14,16-hexaen-13-one] | +++ (+++ is >60%) | < 1 µM | – | – | –
Cc1cccc(C)c1-c1cc2nc(n1)NS(=O)(=O)c1cccc(c1)C(=O)NCC1(CCN(C(=O)C3CC[C@@H](NC(=O)OC(C)(C)C)C3)CC1)CO2 (some centres unmarked) [Compound 470] | – | – | – | – | Ent. A Max Activity (Enteroid Assay A): ++ (++ is 30-60%)
Cc1cccc(C)c1-c1cc2nc(n1)NS(=O)(=O)c1cccc(c1)C(=O)NC[C@@H](c1ccc(C(C)(C)C(F)(F)F)cc1)O2 [Compound 257] | + (+ is <30%) | < 1 µM | – | – | –
CC(C)C[C@@H]1COc2cc(N3C(C)CCC3C)nc(n2)NS(=O)(=O)c2cccc(c2)C(=O)N1 (some centres unmarked) [Compound 309] | – | – | + (+ is <30%) | – | –
Cc1cccc(C)c1-c1cc2nc(n1)NS(=O)(=O)c1cccc(c1)C(=O)NC[C@@H](c1ccc(C(C)(C)C(F)(F)F)cc1)O2 [Compound 256] | +++ (+++ is >60%) | < 1 µM | – | – | –
Cc1cccc(C)c1-c1cc2nc(n1)NS(=O)(=O)c1cccc(c1)C(=O)N[C@@H](CCC(F)(F)F)CO2 (stereo in doubt) [Compound 189] | – | – | + (+ is <30%) | 1 to 3 µM | –
Cc1ccccc1C1CNC(=O)c2cccc(c2)S(=O)(=O)Nc2nc(cc(-c3c(C)cccc3C)n2)O1 (centres unmarked) [Compound 279] | – | – | +++ (+++ is >60%) | < 1 µM | –
Cc1cccc(CO)c1-c1cc2nc(n1)NS(=O)(=O)c1cccc(c1)C(=O)N[C@H](CC(C)C)CO2 [Compound 395] | ++ (++ is 30-60%) | 3 to 30 µM | – | – | –
Cc1cccc(C)c1-c1cc2nc(n1)NS(=O)(=O)c1cccc(c1)C(=O)NCC(c1cnc(C(C)(C)C)nc1)O2 (centres unmarked) [Compound 285] | – | – | + (+ is <30%) | – | –
COc1ccccc1C1CNC(=O)c2cccc(c2)S(=O)(=O)Nc2nc(cc(-c3c(C)cccc3C)n2)O1 (centres unmarked) [Compound 280] | – | – | +++ (+++ is >60%) | < 1 µM | –
Cc1cccc(C)c1-c1cc2nc(n1)NS(=O)(=O)c1cccc(c1)C(=O)NCC(c1ccc([Si](C)(C)C)cc1)O2 (centres unmarked) [Compound 15, 6-(2,6-Dimethylphenyl)-2,2-dioxo-10-(4-trimethylsilylphenyl)-9-oxa-2λ^6-thia-3,5,12,19-tetrazatricyclo[12.3.1.14,8]nonadeca-1(18),4(19),5,7,14,16-hexaen-13-one] | – | < 1 µM | – | – | –
Cc1cccc(C)c1-c1cc2nc(n1)NS(=O)(=O)c1cccc(c1)C(=O)NCC1(CCN(C(=O)C3CCCCN3Cc3ccc(F)cc3)CC1)CO2 (centres unmarked) [Compound 456] | – | – | – | – | Ent. A Max Activity (Enteroid Assay A): ++ (++ is 30-60%); EC50 (Enteroid Assay A): 3 to 30 µM
Cc1cccc(C)c1-c1cc2nc(n1)NS(=O)(=O)c1cccc(c1)C(=O)N[C@@H]1CN(C3CC4(CCCCC4)C3)CC[C@H]1O2 [Compound 60, (3R,8R)-20-(2,6-Dimethylphenyl)-6-{spiro[3.5]nonan-2-yl}-2-oxa-16λ^6-thia-6,9,17,19,22-pentaazatetracyclo[16.3.1.111,15.03,8]tricosa-1(21),11,13,15(23),18(22),19-hexaene-10,16,16-trione] | +++ (+++ is >60%) | < 1 µM | – | – | –
